Reference: publication PMC12057359, “Inhibitory effect of copper chelators on the budding in Candida albicans” (Antimicrobial Agents and Chemotherapy, 2025)

Assays:
C. auris Ci6684 = assay: iHOPE antimicrobial microdilution assay (turbidity OD600); type: cell-based, Candida auris; conditions: Candidozyma auris, CI6684, 24 h, read-out: IC50 against C. auris Ci6684
A. fumigatus Af293 = assay: iHOPE antimicrobial microdilution assay; type: cell-based, Aspergillus fumigatus; conditions: Aspergillus fumigatus, AF293, read-out: IC50 against A. fumigatus Af293
[1] = iHOPE in vitro cytotoxicity assessment (Cell Count Reagent SF); type: cell-based, human; conditions: human; SD in parentheses, n = 3; read-out: IC50 against HL-60 RCB0041 (cytotoxicity)
Procedure: (§5) The method for in vitro cytotoxicity assessment using Cell Count Reagent SF (Nacalai Tesque) has been described previously ([15]). […] Test compounds were added to the culture medium, and then the plates were incubated at 28°C for 24 h.

HL-60 RCB0041 = assay: as above; type: cell-based, human; conditions: up to / at 30 µM
Procedure: as §5

C. glabrata JCM3761 [2] = assay: iHOPE antimicrobial microdilution assay (turbidity OD600); type: cell-based, Candida glabrata; conditions: Nakaseomyces glabratus, JCM3761, 24 h, read-out: IC50 against C. glabrata JCM3761
C. tropicalis JCM1541 = assay: as above; type: cell-based; conditions: Candida tropicalis, JCM1541, 24 h, read-out: IC50 against C. tropicalis JCM1541
C. albicans IFO1601 = test system: C. albicans IFO1601; design: method as in earlier work; conditions: cited from earlier work
S. aureus 209P = assay: iHOPE antimicrobial microdilution assay; type: cell-based, Staphylococcus aureus; conditions: Staphylococcus aureus, 209P, read-out: IC50 against S. aureus 209P
C. albicans JCM1542 [3] = assay: Reactive oxygen species (ROS) measurement (DCFH-DA); type: cell-based, Candida albicans; conditions: 60 min, dose range 0.010–0.3 µM
Procedure: (§1) Intracellular ATP measurement
(§2) Intracellular ATP levels were examined using the protocol outlined in a previous study (27). C. glabrata JCM3761 was precultured overnight in YPD medium [1% yeast extract (Thermo Fisher Scientific), 2% peptone (NIHON PHARMACEUTICAL, Osaka, Japan), and 2% D-glucose]. A 200-µL inoculum suspension containing 0.1% of a 0.5 McFarland standard suspension was prepared and seeded into a 96-well plate. […] The luminescence was recorded using a Varioskan LUX Multimode Microplate Reader.
(§3) Reactive oxygen species (ROS) measurement
(§4) ROS levels were examined using the method described in a previous paper (27). The overnight preculture of C. albicans JCM1542 was washed and resuspended in 5 mL of PBS buffer. 2’,7’- dichlorodihydrofluorescein diacetate (DCFH-DA; Cayman Chemical, MI, US) was added at a concentration of 50 µM. After incubation at 28 °C for 30 min, the fungi were washed three times with PBS buffer to remove the residual extracellular dye and seeded at a density of 1×10^6 cells/well in 50 µL of PBS, followed by the sample addition. After 60 min of incubation, the fluorescence intensity (excitation wavelength/emission wavelength = 485/535 nm) was measured using Varioskan LUX Multimode Microplate Reader.

C. glabrata JCM3761 [4] = assay: Intracellular ATP measurement (BacTiter-Glo); type: cell-based, Candida glabrata; conditions: C. glabrata JCM3761, 6 h, dose range 0.010–0.3 µM
Procedure: as §1, §2, §3, §4

C. albicans JCM1542 [5] = type: cell-based, Candida albicans
P. oryzae Kita-1 = assay: microbe, parasite or virus in culture; type: cell-based, Pyricularia oryzae; conditions: Pyricularia oryzae, KITA1, read-out: IC50 against P. oryzae Kita-1
C. auris VPCI673 = assay: iHOPE antimicrobial microdilution assay (turbidity OD600); type: cell-based, Candida auris; conditions: Candidozyma auris, VPCI673, 24 h, read-out: IC50 against C. auris VPCI673
E. coli HO-141 = assay: iHOPE antimicrobial microdilution assay; type: cell-based, Escherichia coli; conditions: Escherichia coli, HO141, read-out: IC50 against E. coli HO-141
C. albicans JCM1542 [6] = assay: iHOPE antimicrobial microdilution assay (turbidity OD600); type: cell-based, Candida albicans

With [C-]#[N+][C@H](C)CC(=O)NC[C@@H]1CC[C@H](NC(=O)C[C@@H](C)[N+]#[C-])C(O)O1 (stereo partly shown) [SF2768] the IC50 (C. auris Ci6684) was 20 nM, the IC50 (A. fumigatus Af293) was 120 nM and the IC50 [1] was > 30000 nM. The “cytotoxicity to HL-60 cells (in words)” value (HL-60 RCB0041) was “without any cytotoxicity”, the IC50 (C. glabrata JCM3761 [2]) was 5.4 nM and the IC50 (C. tropicalis JCM1541) was 13 nM. The “zone of inhibition against C. albicans IFO1601” value (C. albicans IFO1601) was “faint zone of inhibition”, the IC50 (S. aureus 209P) was 500 nM and the “intracellular level of reactive oxygen species (ROS)” value (C. albicans JCM1542 [3]) was “did not alter the amount”. The “intracellular level of ATP” value (C. glabrata JCM3761 [4]) was “did not alter the amount”, the “effect on farnesol-induced yeast growth of C. albicans” value (C. albicans JCM1542 [5]) was “clearly inhibited this effect” and the “morphological change induced in C. albicans” value (C. albicans JCM1542 [5]) was “few branching or lateral yeasts were observed, and only minimal hyphal growth was observed”. The “concentration at which the hyphal form of C. albicans was predominant” value (C. albicans JCM1542 [5]; C. albicans JCM1542) was ≥ 0.030 µM, the IC50 (P. oryzae Kita-1) was > 30000 nM and the IC50 (C. auris VPCI673) was 49 nM. The IC50 (E. coli HO-141) was > 30000 nM, the “effect of excessive amounts of other metal ions (iron, zinc, manganese, magnesium) on the activity” value (C. albicans JCM1542 [6]; 0.03 µM SF2768, metal chlorides, 24 h) was “did not affect the activity” and the IC50 (C. albicans JCM1542 [6]; Candida albicans, JCM1542, 24 h, read-out: IC50 against C. albicans JCM1542) was 10 nM. The selectivity index (C. albicans JCM1542 [6]; HL-60 cytotoxicity versus C. albicans IC50) was > 3,000.
